tested on: macrophages derived from mouse bone marrow; assay: LPS-induced secretion of inflammatory factors from macrophages, ELISA of supernatant; type: cell-based; conditions: 30 umol/L 2 hours before LPS 500 ng/ml for 24 hours; FIG. 2
Experimental: macrophage grouping (in vitro):
Cultivate macrophages derived from mouse bone marrow in vitro.
The experiment was divided into 8 groups, namely: • Control group (untreated mouse bone marrow-derived macrophages), • LPS group (500 ng/ml LPS stimulated macrophages for 24 hours), • LPS+TJ-2 group (2 hours before LPS stimulation, administer 30 umol/L TJ-2 drug stimulation), • LPS+TJ-5 group (2 hours before LPS stimulation, administer 30 umol/L TJ-5 drug stimulation), • LPS+TJ-8 group (2 hours before LPS stimulation, administer 30 umol/L TJ-8 drug stimulation), • LPS+TJ-9 group (2 hours before LPS stimulation, administer 30 umol/L TJ-9 drug stimulation), • LPS+TJ-11 group (2 hours before LPS stimulation, administer 30 umol/L TJ-11 drug stimulation), • and LPS+TJ-12 group (2 hours before LPS stimulation, administer 30 umol/L TJ-12 drug stimulation).
After 24 hours of LPS stimulation, the cell culture supernatant was removed and ELISA was performed to detect the concentration of various inflammatory factors in the supernatant.

| Compound | inhibitory effect on inflammatory factors compared among the compounds | secretion of various inflammatory factors in macrophages (IL-1β, Il-6, TNF-α, IL-18, IL-17) |
| --- | --- | --- |
| Cc1ccc(N2CCN(CC(=O)Nc3nc(-c4ccccc4)cs3)CC2)cc1 [INNA1602, 2-(4-(4-methylphenyl)piperazine-1-yl) -N-(4-phenylthiazole-2-yl) acetamide] | have the same inhibitory effect on inflammatory factors | can inhibit the secretion of various inflammatory factors in macrophages |
| Cc1cccc(-c2csc(NC(=O)CCN3CCN(c4cccc(C)c4)CC3)n2)c1 [INNA1611] | have the same inhibitory effect on inflammatory factors | can inhibit the secretion of various inflammatory factors in macrophages |
| O=C(CN1CCN(Cc2ccccc2)CC1)Nc1nc(-c2ccccc2)cs1 [INNA1608, 2-(4-benzylpiperazine-1-yl)-N-(4-phenylthiazole-2-yl) acetamide] | have the same inhibitory effect on inflammatory factors | can inhibit the secretion of various inflammatory factors in macrophages |
| Cc1cccc(-c2csc(NC(=O)CN3CCN(Cc4ccccc4)CC3)n2)c1 [INNA1612, 2-(4-benzyl-base)piperazine-1-N-(4-(3-methylphenyl)thiazole-2-base) acetamide] | have the same inhibitory effect on inflammatory factors | can inhibit the secretion of various inflammatory factors in macrophages |
| COc1cccc(-c2csc(NC(=O)CCN3CCN(Cc4ccccc4)CC3)n2)c1 [INNA1609, 3-(4-benzylpiperazine-1-yl)-N-(4-(3-methoxyphenyl)thiazole-2-yl) propionamide] | have the same inhibitory effect on inflammatory factors | can inhibit the secretion of various inflammatory factors in macrophages |

From patent US20240180898A1, “USE OF AMINOTHIAZOLE DERIVATIVE IN TREATMENT OF IMMUNE INFLAMMATION” (INNAMUNE PHARMACEUTICAL CO. LTD., priority 2021, published 2024)
